The test system of assay [1] is A2780 (epithelial ovarian carcinoma cells). The assay is described as follows: MTT cytotoxicity assay. The assay is classed as cell-based, human. Particulars: A2780, 48 h. As for the experimental part: (§1) Cell culture. Epithelial ovarian carcinoma cells (A2780) that acquired resistance to cisplatin epithelial ovarian carcinoma cells (A2780cis), colon adenocarcinoma cells (SW480) and epithelial lung adenocarcinoma cells (A549) were provided by Sigma Aldrich. A549 and SW480 cells were grown in Dulbecco′s Modified Eagle′s Medium (DMEM), supplemented with 10% Fetal Bovine Serum (FBS) and 1% penicillin, streptomycin and 1% glutamine for A549 and 1% amphotericin B for SW480. The A2780 and A2780cis were grown in RPMI 1640 supplemented with 10% Fetal Bovine Serum (FBS), 1% glutamine and 1% penicillin, streptomycin and amphotericin B. All cells were incubated in a humidified incubator at 37 °C under a 5% CO2 atmosphere and grown in 100 mm culture dishes to approximately 70–80% confluence. For subculturing, cells were detached with Trypsin-EDTA (Sigma). A549-gal were derived from A549 cultured in glucose-free medium supplemented with 10 mM galactose (Sigma) for at least 10 passes.
(§2) Cytotoxicity. MTT Assay and IC50 estimation. The cytotoxicity of 1[C,NH-Cl], 2[C,NMe-Cl], 3[N,NH-Cl]Cl, 4[N,NMe-Cl]Cl, 5[CNH2,NH-Cl]Cl, 6[CNH2,S-Cl]Cl, 7[CO,NH-Cl] and 8[CO,S-Cl] in A2780, A2780cis, SW480 and A549 carcinoma cells was evaluated by the MTT colorimetric assay. Cells were seeded in 96-well plates at 5000 cells per well and incubated at 37 °C, 5% CO2. After 24 h, the medium was removed and replaced with fresh medium with different concentrations of the compounds under study, and they were incubated for 48 h. Final DMSO concentration was kept below 0.7% in wells. For a negative control, one sequence of cells was left untreated and for vehicle control, cells treated with DMSO were included. For cell viability experiments preincubating with NAC (N-Acetyl-L-Cysteine), the cells were pre-treated with NAC, 10 mM for 2 h before the incubation with complex 1[C,NH-Cl] for 24 h. Then, the medium was removed from the wells, and 100 µL MTT (5 mg/mL) was added. After an incubation time of 4 h, 100 μL of solubilizing detergent solution (SDS, 10% in HCL 0.01 M) was added and kept in the incubator overnight. Cell growth inhibition was detected by measuring the absorbance of each well at 595 nm using a BioTek Cytation5 microplate reader. Each test was repeated in quadruplicate in three independent experiments for each cell line. The percentage of survival cells was calculated using absorbance measurements compared with control and the IC50 estimation using Graph Pad Prism version 6.01.
In general terms: Tetrazolium dyes change colour on reduction, which living cells bring about.

The test system of assay [2] is A2780cis (ovarian, acquired resistance to cisplatin). The assay is described as follows: MTT cytotoxicity assay. Format: cell-based, human. Conditions: 48 h; for IC50: A2780cis. As for the experimental part:
as §1, §2

For assay [3], the system named is A549 (epithelial lung adenocarcinoma cells). The assay is described as follows: MTT cytotoxicity assay. Format: cell-based, human. Particulars: A549, 48 h. As for the experimental part:
as §1, §2

For assay [4], the system named is SW480 (colon adenocarcinoma cells). Kind of assay: MTT cytotoxicity assay. Format: cell-based, human. Conditions: SW480, 48 h. As to the method:
as §1, §2

The next assay addresses T1, BSA (Bos taurus, UniProt P02769).
T1 construct: purchased Merck Life Science S.L.U., Madrid, Spain
The assay is described as follows: Native PAGE of BSA with iridium complexes. The assay is classed as binding, bovine. Particulars: BSA 3 µM, CD/CP = 10, overnight. As to the method: Native protein electrophoresis. The interaction between BSA and iridium complexes was studied using native polyacrylamide gel electrophoresis (PAGE). The BSA concentration was 3 µM and the CD/CP ratio was 10. The samples of BSA/Ir-complexes were incubated overnight. The samples were mixed with a sample buffer (glycerol and bromophenol) and loaded into a 10% polyacrylamide gel for PAGE analysis (BioRad electrophoresis accessories). The gel was run at 80 V for 3 h, and then it was stained and destained before the gel was imaged using BioRad Gel Doc XR+ molecular imager. The staining solution contains 45% MeOH, 10% glacial acetic acid, 45% H2O and 0.1% brilliant blue, whereas the destaining solution consists of 20% MeOH, 10% glacial acetic acid and 70% H2O.

A further assay has as its system Calf thymus DNA. The assay is described as follows: DNA melting temperature (DSC). Conditions: as a function of CD/CP, overnight incubation. Format: binding. As to the method:
Differential scanning calorimetry (DSC) studies were performed in a nano DSC (TA Instruments, Newcastle, USA) to determine the melting temperature of DNA in the absence and in the presence of different amount of the Ir(III) complexes. Cells were 300 μL platinum capillary tubes. Measurements were performed by heating the dye/polynucleotide system from 20 to 90 °C, at 1 °C/min scan rate and 3 atm pressure. To reduce the formation of bubbles upon heating to a minimum, the reference and the sample solutions were previously degassed for 30 min in a degassing station (TA Instruments, Newcastle, USA). The thermograms recorded were analysed with the NanoAnalyze 2.0 software. The buffer–buffer baseline was run at least five heating/cooling cycles until the heating was reproducible, and then, it was subtracted from the sample data.

The results in this text go back to article PMC9818021, “Targets, Mechanisms and Cytotoxicity of Half-Sandwich Ir(III) Complexes Are Modulated by Structural Modifications on the Benzazole Ancillary Ligand” (Cancers, 2022).

Structures are written as SMILES. Bounds are passed on as bounds.

T1 sequence (P02769 25-607): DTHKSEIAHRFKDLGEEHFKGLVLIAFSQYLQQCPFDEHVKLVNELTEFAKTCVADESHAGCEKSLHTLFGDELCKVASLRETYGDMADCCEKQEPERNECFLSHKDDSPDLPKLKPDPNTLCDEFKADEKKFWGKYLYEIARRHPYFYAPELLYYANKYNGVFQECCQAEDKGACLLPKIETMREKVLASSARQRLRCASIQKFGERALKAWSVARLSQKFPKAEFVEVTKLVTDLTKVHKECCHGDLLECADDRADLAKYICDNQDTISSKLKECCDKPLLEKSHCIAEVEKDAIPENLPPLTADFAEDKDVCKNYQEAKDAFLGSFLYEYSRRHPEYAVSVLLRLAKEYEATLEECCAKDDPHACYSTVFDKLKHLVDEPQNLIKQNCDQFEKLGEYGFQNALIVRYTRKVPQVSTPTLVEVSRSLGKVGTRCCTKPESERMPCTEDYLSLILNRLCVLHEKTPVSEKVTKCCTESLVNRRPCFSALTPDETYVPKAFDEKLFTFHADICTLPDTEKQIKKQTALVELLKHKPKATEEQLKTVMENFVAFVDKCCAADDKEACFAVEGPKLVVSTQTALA

As usually defined, the IC50 is the point on the concentration scale where inhibition reaches its midpoint. `Cc1c(C)c(C)[c-](C)c1C.Cn1c2[n+](c3ccccc31)[Ir]([Cl])[n+]1ccccc1-2.[Cl-]` [4[N,NMe], [(η^5-Cp*)IrCl(κ^2-N,N-pyMebim)]Cl]: the IC50 in assay [1], in assay [2], in assay [3] and in assay [4] was over 100 µM each time. Moreover, the “Interaction with BSA” value at BSA was “interactions”. For the same compound, the “∆Tm of DNA” value in the assay on Calf thymus DNA is reported as -14 oC.

On to `Cc1c(C)c(C)[c-](C)c1C.[Cl-].[Cl][Ir]1[NH2+]c2ccccc2-c2[nH]c3ccccc3[n+]21` [5[CNH2,NH], [(η^5-Cp*)IrCl(κ^2-N,N-apbim)]Cl], for which the IC50 in assay [1] was 17 ± 1 µM; in assay [2], 30 ± 1 µM; in assay [3] it was over 100 µM; in assay [4] it was 34 ± 1 µM. Besides, at BSA, the “Interaction with BSA” value is “do not interact with the protein”. Also, in the assay on Calf thymus DNA, the “∆Tm of DNA” value was “+5 oC”.

For the compound `Cc1c(C)c(C)[c-](C)c1C.[Cl][Ir]1[O]c2ccccc2-c2sc3ccccc3[n+]21` [8[CO,S], [(η^5-Cp*)IrCl(κ^2-O,N-hpbtz)]], the IC50 was 2 ± 1 µM in assay [1], 6 ± 2 µM in assay [2], 41 ± 5 µM in assay [3] and 34 ± 1 µM in assay [4]. In addition, the “Resistance Factor (RF) IC50,A2780CIS/IC50,A2780” value (“Resistance Factor” below) in assay [2] is reported as over 2. Moreover, the “Interaction with BSA” value at BSA was “interacts with BSA”. For the same compound, the “∆Tm of DNA” value with Calf thymus DNA was determined as 0 oC.

`Cc1c(C)c(C)[c-](C)c1C.Cn1c2[n+](c3ccccc31)[Ir]([Cl])[c]1ccccc1-2` [2[C,NMe], [(η^5-Cp*)IrCl(κ^2-N,C-NMepbim)]]: the IC50 was 9 ± 1 µM in assay [1], 13 ± 1 µM in assay [2] and 10 ± 1 µM in assay [3]. Besides, the “Resistance Factor” value in assay [2] was “no cross-resistance”. Besides, on BSA, the “Interaction with BSA” value was “do not interact with the protein”. Moreover, the “∆Tm of DNA” value in the assay on Calf thymus DNA amounted to 0 oC.

With `Cc1c(C)c(C)[c-](C)c1C.[Cl-].[Cl][Ir]1[NH2+]c2ccccc2-c2sc3ccccc3[n+]21` [6[CNH2,S], [(η^5-Cp*)IrCl(κ^2-N,N-apbtz)]Cl], the IC50 in assay [1] is over 100 µM; in assay [2] it was 48 ± 2 µM; in assay [3] it was over 100 µM; in assay [4] it was 40 ± 1 µM. The “Interaction with BSA” value on BSA is “do not interact with the protein”. In addition, in the assay with Calf thymus DNA, the “∆Tm of DNA” value is “+21 oC”.

As for `Cc1c(C)c(C)[c-](C)c1C.[Cl][Ir]1[c]2ccccc2-c2[nH]c3ccccc3[n+]21` [1[C,NH], [(η^5-Cp*)IrCl(κ^2-N,C-pbim)]], the IC50 turned out to be 5 ± 2 µM in assay [1], 5 ± 1 µM in assay [2], 10 ± 1 µM in assay [3] and 5 ± 2 µM in assay [4]. Besides, in assay [2], the “Resistance Factor” value is “no cross-resistance”. Also, the “Interaction with BSA” value on BSA is on record as “do not interact with the protein”. For the same compound, the “∆Tm of DNA” value with Calf thymus DNA was found to be 0 oC.

Consider `Cc1c(C)c(C)[c-](C)c1C.[Cl-].[Cl][Ir]1[n+]2ccccc2-c2[nH]c3ccccc3[n+]21` [3[N,NH], [(η^5-Cp*)IrCl(κ^2-N,N-pybim)]Cl], for which the IC50 is 84 ± 1 µM in assay [1], 48 ± 1 µM in assay [2], over 100 µM in assay [3] and 90 ± 1 µM in assay [4]. The “Interaction with BSA” value at BSA is “interactions”. Further, the “∆Tm of DNA” value with Calf thymus DNA was -35 oC.

Turning to `Cc1c(C)c(C)[c-](C)c1C.[Cl][Ir]1[O]c2ccccc2-c2[nH]c3ccccc3[n+]21` [7[CO,NH], [(η^5-Cp*)IrCl(κ^2-O,N-hpbim)]], the IC50 in assay [1] was 14 ± 1 µM; in assay [2] it was 42 ± 1 µM; in assay [3], 43 ± 3 µM; in assay [4], over 100 µM. The “Resistance Factor” value in assay [2] was over 2. In addition, the “Interaction with BSA” value at BSA is reported as “interactions”. The “∆Tm of DNA” value in the assay with Calf thymus DNA was found to be 0 oC.
